According to US20090281136A1, “PRASUGREL PHARMACEUTICAL FORMULATIONS” (priority 2008, published 2009):

Experiment: Drug-excipient compatibility study (impurity formation on storage at 40° C. and 75% relative humidity)
Assay type: physicochemical
Procedure: Prasugrel hydrochloride and mixtures with excipients in the weight ratios stated below are mixed well and sifted through an ASTM #40 mesh sieve. The mixture is placed into open glass vials, stored at 40° C. and 75% relative humidity for four weeks, and samples are analyzed at intervals to evaluate the extent of impurity formation. Values for impurities in the table below are calculated as percent by weight of the original prasugrel content.

CC(=O)Oc1cc2c(s1)CCN(C(C(=O)C1CC1)c1ccccc1F)C2 (stereo not drawn) [Prasugrel, 5-[2-cyclopropyl-1-(2-fluorophenyl)-2-oxoethyl]-4,5,6,7-tetrahydrothieno[3,2-c]pyridin-2-yl acetate]
Total Impurities, 1 Week (1 week at 40° C. and 75% relative humidity, open glass vials): 0.6547 percent by weight of the original prasugrel content
Total Impurities, 2 Weeks (2 weeks at 40° C. and 75% relative humidity, open glass vials): 0.6982 percent by weight of the original prasugrel content
Total Impurities, 3 Weeks (3 weeks at 40° C. and 75% relative humidity, open glass vials): 0.7488 percent by weight of the original prasugrel content
Total Impurities, 4 Weeks (4 weeks at 40° C. and 75% relative humidity, open glass vials): 0.8998 percent by weight of the original prasugrel content
Total Impurities, Initial (Initial, open glass vials): 0.6301 percent by weight of the original prasugrel content
Stability in the presence of the excipients studied (accelerated stability testing conditions): acceptable stability
